PubChem BioAssay AID330 (DTP/NCI, 2004)
Several values for one entry are separate records, joined by “and”; a condition that tells them apart may be missing. Identical values can stand only once. Toxic doses and inconclusive results are not listed.

System: P388 leukemia ip, CD2F1 mice, survival T/C
Test: NCI In Vivo Anticancer Drug Screen. Data for tumor model P388 Leukemia (intraperitoneal) in CD2F1 (CDF1) mice
Details: endpoint: median survival time, higher = longer survival
Procedure, shortened: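 Mice carrying the transplanted tumor received test compound or vehicle. Survival was recorded in each group, and the value is the treated-group measurement divided by that of the vehicle-treated control group.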

COc1ccc(C2N(C)CCCN2C)c(OC)c1
T/C (dose: 6.25 mg/kg/injection, schedule: Q01DX009 (ip), vehicle: saline sonified): 100 % of control
T/C (dose: 12.5 mg/kg/injection, schedule: Q01DX009 (ip), vehicle: saline sonified): 105 % of control
T/C (dose: 25.0 mg/kg/injection, schedule: Q01DX009 (ip), vehicle: saline sonified): 100 % of control

CNc1cc(NC)c2c(c1N)C(=O)c1ccccc1C2=O
T/C (dose: 50.0 mg/kg/injection, schedule: Q04DX002 (ip), vehicle: Klucel (hydroxypropylcellulose) (HPC)): 103 % of control
T/C (dose: 100.0 mg/kg/injection, schedule: Q04DX002 (ip), vehicle: Klucel (hydroxypropylcellulose) (HPC)): 100 % of control
T/C (dose: 200.0 mg/kg/injection, schedule: Q04DX002 (ip), vehicle: Klucel (hydroxypropylcellulose) (HPC)): 101 % of control

Cc1ncc([N+](=O)[O-])n1CCSC#N
T/C (dose: 6.25 mg/kg/injection, schedule: Q04DX003 (ip), vehicle: saline with Tween-80): 105 % of control
T/C (dose: 12.5 mg/kg/injection, schedule: Q04DX003 (ip), vehicle: saline with Tween-80): 96 % of control

CCOC(=O)C(C#N)C(=N)C1C(=O)OC2CCCCC21 (centres undefined)
T/C (dose: 60.0 mg/kg/injection, schedule: Q01DX005 (ip), vehicle: saline with Tween-80): 98 % of control
T/C (dose: 120.0 mg/kg/injection, schedule: Q01DX005 (ip), vehicle: saline with Tween-80): 100 % of control
T/C (dose: 240.0 mg/kg/injection, schedule: Q01DX005 (ip), vehicle: saline with Tween-80): 92 % of control

C=C1CC[C@]2(C)CC[C@]3(C)C4=CC=C5C(=CC(=O)C(O)=C5C)[C@]4(C)CC[C@@]3(C)[C@@H]2C1
T/C (dose: 0.06 mg/kg/injection, schedule: Q01DX009 (ip), vehicle: saline with Tween-80): 97 % of control
T/C (dose: 0.09 mg/kg/injection, schedule: Q01DX009 (ip), vehicle: none): 93 % of control
T/C (dose: 0.12 mg/kg/injection, schedule: Q01DX009 (ip), vehicle: saline with Tween-80): 103 % of control
T/C (dose: 0.19 mg/kg/injection, schedule: Q01DX009 (ip), vehicle: none): 103 % of control
T/C (dose: 0.25 mg/kg/injection, schedule: Q01DX009 (ip), vehicle: saline with Tween-80): 100 % of control and 103 % of control
T/C (dose: 0.5 mg/kg/injection, schedule: Q01DX009 (ip), vehicle: none): 107 % of control and 98 % of control
T/C (dose: 0.5 mg/kg/injection, schedule: Q01DX009 (ip), vehicle: saline with Tween-80): 103 % of control and 115 % of control
T/C (dose: 0.75 mg/kg/injection, schedule: Q01DX009 (ip), vehicle: none): 103 % of control and 107 % of control
T/C (dose: 1.0 mg/kg/injection, schedule: Q01DX009 (ip), vehicle: none): 110 % of control
T/C (dose: 1.0 mg/kg/injection, schedule: Q01DX009 (ip), vehicle: saline with Tween-80): 112 % of control and 119 % of control
T/C (dose: 1.5 mg/kg/injection, schedule: Q01DX009 (ip), vehicle: none): 105 % of control and 120 % of control and 98 % of control
T/C (dose: 2.0 mg/kg/injection, schedule: Q01DX009 (ip), vehicle: none): 115 % of control and 120 % of control
T/C (dose: 3.0 mg/kg/injection, schedule: Q01DX009 (ip), vehicle: none): 95 % of control

CCOC(=O)C1=C(C)NC(C)=C(C(=O)OCC)C1c1ccc(OC)cc1
T/C (dose: 25.0 mg/kg/injection, schedule: Q01DX009 (ip), vehicle: Klucel (hydroxypropylcellulose) (HPC)): 94 % of control
T/C (dose: 50.0 mg/kg/injection, schedule: Q01DX009 (ip), vehicle: Klucel (hydroxypropylcellulose) (HPC)): 91 % of control
T/C (dose: 100.0 mg/kg/injection, schedule: Q01DX009 (ip), vehicle: Klucel (hydroxypropylcellulose) (HPC)): 100 % of control
T/C (dose: 200.0 mg/kg/injection, schedule: Q01DX009 (ip), vehicle: Klucel (hydroxypropylcellulose) (HPC)): 101 % of control

O=S(=O)(O)O.[NH-]C(c1ccccc1)C([NH-])c1ccccc1.[Pt+2] (centres undefined)
T/C (dose: 1.56 mg/kg/injection, schedule: Q04DX002 (ip), vehicle: saline): 110 % of control
T/C (dose: 6.25 mg/kg/injection, schedule: Q04DX002 (ip), vehicle: saline): 163 % of control
T/C (dose: 12.5 mg/kg/injection, schedule: Q04DX002 (ip), vehicle: saline): 157 % of control and 173 % of control
T/C (dose: 25.0 mg/kg/injection, schedule: Q04DX002 (ip), vehicle: saline): 153 % of control and 169 % of control and 185 % of control

O=C1CS(=O)(=O)C(c2ccccc2Cl)N1N1C(=O)CS(=O)(=O)C1c1ccccc1Cl (centres undefined)
T/C (dose: 50.0 mg/kg/injection, schedule: Q01DX005 (ip), vehicle: saline with Tween-80): 96 % of control
T/C (dose: 100.0 mg/kg/injection, schedule: Q01DX005 (ip), vehicle: saline with Tween-80): 90 % of control
T/C (dose: 200.0 mg/kg/injection, schedule: Q01DX005 (ip), vehicle: saline with Tween-80): 89 % of control

Cc1cc(NC(=O)NCc2ccc(N3C(N)=NC(N)=NC3(C)C)cc2)ccc1S(=O)(=O)F
T/C (dose: 12.5 mg/kg/injection, schedule: Q01DX009 (ip), vehicle: saline with Tween-80): 119 % of control
T/C (dose: 25.0 mg/kg/injection, schedule: Q04DX003 (ip), vehicle: saline with Tween-80): 105 % of control
T/C (dose: 25.0 mg/kg/injection, schedule: Q04DX003 (ip), vehicle: saline): 109 % of control
T/C (dose: 50.0 mg/kg/injection, schedule: Q04DX003 (ip), vehicle: saline with Tween-80): 119 % of control
T/C (dose: 100.0 mg/kg/injection, schedule: Q01DX009 (ip), vehicle: saline with Tween-80): 176 % of control
T/C (dose: 100.0 mg/kg/injection, schedule: Q04DX003 (ip), vehicle: saline with Tween-80): 153 % of control
T/C (dose: 200.0 mg/kg/injection, schedule: Q04DX003 (ip), vehicle: saline with Tween-80): 164 % of control
T/C (dose: 200.0 mg/kg/injection, schedule: Q04DX003 (ip), vehicle: saline): 154 % of control
T/C (dose: 400.0 mg/kg/injection, schedule: Q04DX003 (ip), vehicle: saline): 90 % of control
